Where two headings read alike, the source gives them in different places. Values belong to the compound of their own block, whether it stands above or below them.
Experiments:
HL-60 leukemia cells = assay: MTT antiproliferative assay, HL-60; format: cell-based, human; details: Homo sapiens
[1] = system: MCF-7 breast cancer cells; assay: MTT antiproliferative assay, MCF-7; format: cell-based; details: Homo sapiens
[2] = system: HeLa cervical cancer cells; assay: MTT antiproliferative assay, HeLa; format: cell-based; details: Homo sapiens, read-out: IC50 HeLa Cervical
[3] = system: human peripheral blood mononuclear cells (PBMC); assay: MTT assay on normal PBMC; format: cell-based; details: 48 h, read-out: IC50 PBMC (normal cells)
[4] = system: DU145 prostate cancer cells; assay: MTT antiproliferative assay, DU145; format: cell-based; details: Homo sapiens
[5] = system: MIA PaCa-2 pancreatic cancer cells; assay: MTT antiproliferative assay, MIA PaCa-2; format: cell-based; details: Homo sapiens
[6] = system: MCF-10A mammary epithelial cells; assay: MTT assay on normal MCF-10A cells; format: cell-based; details: Homo sapiens, 48 h, read-out: IC50 MCF-10A Breast (normal cell line)
[7] = system: CaCo-2 colon cancer cells; assay: MTT antiproliferative assay, CaCo-2; format: cell-based; details: Homo sapiens
MCF-7 cells = assay: Rhodamine-123 mitochondrial membrane potential assay, MCF-7; format: cell-based, human; details: 24 h
Experimental: [Worded in the source for another cell line; this cell line is reported under the same test.] Mitochondrial membrane potential changes (ΔΨm) were determined by flow cytometry using rhodamine-123 (green-fluorescent dye)[32]. MIA PaCa-2 pancreatic cancer cells (1 × 10^6 cells/well) were exposed to the isolated compound (5 µM) for 24 h. Further, rhodamine-123 (200 nM) was added to the cells, which were kept in dark for 35 min. The cells were further centrifuged and the pellet was washed with phosphate buffered saline (1 ml). The intensity of fluorescence in the cells represented the mitochondrial membrane potential change (ΔΨm), which was measured using a flow cytometer.

[8] = HL-60, MTT assay, cancer cell line, mean of three independent experiments ± S.E.M., read-out: IC50 HL-60 Leukemia
[9] = MCF7, MTT assay, cancer cell line, mean of three independent experiments ± S.E.M., read-out: IC50 MCF-7 Breast
[10] = MTT assay, cancer cell line, mean of three independent experiments ± S.E.M.
[11] = DU-145, MTT assay, cancer cell line, mean of three independent experiments ± S.E.M., read-out: IC50 DU145 Prostate
[12] = MIA PaCa-2, MTT assay, cancer cell line, mean of three independent experiments ± S.E.M., read-out: IC50 MIA PaCa-2 Pancreatic
[13] = Caco-2, MTT assay, cancer cell line, mean of three independent experiments ± S.E.M., read-out: IC50 CaCo-2 Colon

SMILES: COc1cc(CO)ccc1OC1OC(COC(=O)c2ccccc2)C(O)C(O)C1O (stereo not drawn) [Compound 9b, (6-(4-(hydroxymethyl)-2-methoxyphenoxy)-tetrahydro-3,4,5-trihydroxy-2H-pyran-2-yl)methyl benzoate]
IC50 (HL-60 leukemia cells; [8]): 22.8 ± 1.3 µM
IC50 [1, 9]: 26.4 ± 0.96 µM
IC50 [2, 10]: 36.7 ± 2.31 µM
IC50 ([3]; MTT assay, normal cells): > 100 µM
IC50 [4, 11]: 37.3 ± 2.54 µM
melting point: 187 to 189 °C
IC50 [5, 12]: 39.3 ± 1.42 µM
IC50 ([6]; MTT assay, normal cells): > 100 µM
IC50 [7, 13]: 47.3 ± 1.62 µM

SMILES: COc1cc(CO)cc(OC)c1OC1OC(COC(=O)c2ccccc2I)C(O)C(O)C1O (stereo not drawn) [Compound 9n, (6-(4-(hydroxymethyl)-2,6-dimethoxyphenoxy)-tetrahydro-3,4,5-tri hydroxy-2H-pyran-2-yl)methyl 2-iodobenzoate]
IC50 (HL-60 leukemia cells; [8]): 28.3 ± 1.72 µM
IC50 [1, 9]: 35 ± 1.52 µM
IC50 [2, 10]: 32.1 ± 1.35 µM
IC50 ([3]; MTT assay, normal cells): > 100 µM
IC50 [4, 11]: 37.9 ± 2.48 µM
melting point: 124 to 126 °C
IC50 [5, 12]: 26.8 ± 1.25 µM
IC50 ([6]; MTT assay, normal cells): > 100 µM
IC50 [7, 13]: 45.2 ± 1.79 µM

SMILES: COc1cc(CO)ccc1OC1OC(COC(=O)c2cc([N+](=O)[O-])cc([N+](=O)[O-])c2)C(O)C(O)C1O (stereo not drawn) [Compound 9i, (6-(4-(hydroxymethyl)-2-methoxyphenoxy)-tetrahydro-3,4,5-trihydroxy-2H-pyran-2-yl)methyl 3,5-dinitrobenzoate]
IC50 (HL-60 leukemia cells; HL-60, read-out: IC50 HL-60 Leukemia): 29.6 ± 0.83 µM
IC50 ([1]; MCF7, read-out: IC50 MCF-7 Breast): 34.8 ± 0.51 µM
IC50 [2]: 38.4 ± 1.53 µM
IC50 [3]: > 100 µM
IC50 ([4]; DU-145, read-out: IC50 DU145 Prostate): 43.6 ± 1.87 µM
melting point: 186 to 188 °C
IC50 ([5]; MIA PaCa-2, read-out: IC50 MIA PaCa-2 Pancreatic): 34.8 ± 1.93 µM
IC50 [6]: > 100 µM
IC50 ([7]; Caco-2, read-out: IC50 CaCo-2 Colon): 47 ± 2.58 µM

SMILES: COc1cc(CO)ccc1OC1OC(COC(=O)c2ccccc2I)C(O)C(O)C1O (stereo not drawn) [Compound 9g, (6-(4-(hydroxymethyl)-2-methoxyphenoxy)-tetrahydro-3,4,5-trihydroxy-2H-pyran-2-yl)methyl 2-iodobenzoate]
IC50 (HL-60 leukemia cells; [8]): 33.5 ± 1.45 µM
IC50 [1, 9]: 28.9 ± 0.47 µM
IC50 [2, 10]: 41.9 ± 3.15 µM
IC50 ([3]; MTT assay, normal cells): > 100 µM
IC50 [4, 11]: 38.32 ± 0.37 µM
melting point: 128 to 130 °C
IC50 [5, 12]: 23.4 ± 1.53 µM
IC50 ([6]; MTT assay, normal cells): > 100 µM
IC50 [7, 13]: 43.9 ± 2.52 µM

SMILES: COc1cc(CO)cc(OC)c1OC1OC(COC(=O)c2ccc(C)cc2)C(O)C(O)C1O (stereo not drawn) [Compound 9k, (6-(4-(hydroxymethyl)-2,6-dimethoxyphenoxy)-tetrahydro-3,4,5-trihydroxy-2H-pyran-2-yl)methyl 4-methylbenzoate]
IC50 (HL-60 leukemia cells; [8]): 18.5 ± 0.78 µM
IC50 [1, 9]: 22 ± 0.72 µM
IC50 [2, 10]: 26.6 ± 1.37 µM
IC50 ([3]; MTT assay, normal cells): > 100 µM
IC50 [4, 11]: 42.8 ± 0.59 µM
melting point: 201 to 203 °C
IC50 [5, 12]: 23.9 ± 0.74 µM
IC50 ([6]; MTT assay, normal cells): > 100 µM
IC50 [7, 13]: 28.3 ± 1.47 µM

SMILES: COc1cc(CO)ccc1OC1OC(COC(=O)c2cccnc2)C(O)C(O)C1O (stereo not drawn) [Compound 9h, (6-(4-(hydroxymethyl)-2-methoxyphenoxy)-tetrahydro-3,4,5-trihydroxy-2H-pyran-2-yl)methyl nicotinate]
IC50 (HL-60 leukemia cells; [8]): 30.2 ± 1.32 µM
IC50 [1, 9]: 33.9 ± 0.48 µM
IC50 [2, 10]: 35.4 ± 2.2 µM
IC50 ([3]; MTT assay, normal cells): > 100 µM
IC50 [4, 11]: 42.1 ± 1.52 µM
melting point: 194 to 196 °C
IC50 [5, 12]: 33.9 ± 1.41 µM
IC50 ([6]; MTT assay, normal cells): > 100 µM
IC50 [7, 13]: 49.04 ± 0.48 µM

SMILES: COc1cc(CO)ccc1OC1OC(COC(=O)c2ccc(C)cc2)C(O)C(O)C1O (stereo not drawn) [Compound 9c, (6-(4-(hydroxymethyl)-2-methoxyphenoxy)-tetrahydro-3,4,5-trihydroxy-2H-pyran-2-yl)methyl 4-methylbenzoate]
IC50 (HL-60 leukemia cells; [8]): 12.5 ± 0.81 µM
IC50 [1, 9]: 9.34 ± 0.48 µM
IC50 [2, 10]: 14.2 ± 0.68 µM
IC50 ([3]; MTT assay, normal cells): > 100 µM
IC50 [4, 11]: 12.4 ± 0.47 µM
melting point: 228 to 230 °C
IC50 [5, 12]: 13.3 ± 0.25 µM
IC50 ([6]; MTT assay, normal cells): > 100 µM
IC50 [7, 13]: 13.7 ± 0.63 µM

SMILES: COc1cc(CO)ccc1OC1OC(COC(=O)c2cc(OC)c(OC)c(OC)c2)C(O)C(O)C1O (stereo not drawn) [Compound 9e, (6-(4-(hydroxymethyl)-2-methoxyphenoxy)-tetrahydro-3,4,5-trihydroxy-2H-pyran-2-yl)methyl 3,4,5-trimethoxybenzoate]
IC50 (HL-60 leukemia cells; [8]): 22.2 ± 1.32 µM
IC50 [1, 9]: 33.4 ± 0.76 µM
IC50 ([3]; MTT assay, normal cells): > 100 µM
IC50 [4, 11]: 49.4 ± 1.72 µM
melting point: 168 to 170 °C
IC50 [5, 12]: 36.3 ± 1.58 µM
IC50 ([6]; MTT assay, normal cells): > 100 µM
IC50 [7, 13]: 43.5 ± 1.87 µM

SMILES: CC[C@@]1(O)C(=O)OCc2c1cc1n(c2=O)Cc2cc3ccccc3nc2-1 [Camptothecin, camptothecin, reference compound]
IC50 (HL-60 leukemia cells; [8]): 4.95 ± 0.5 µM
IC50 [1, 9]: 5.16 ± 0.32 µM
IC50 [2, 10]: 4.28 ± 0.32 µM
IC50 ([3]; MTT assay, normal cells): > 100 µM
IC50 [4, 11]: 6.75 ± 0.45 µM
IC50 [5, 12]: 4.24 ± 0.41 µM
mitochondria membrane potential loss (MCF-7 cells; 5 µM): 53.33 ± 3.06%
mitochondria membrane potential loss (MCF-7 cells; 10 µM): 62 ± 2.31%
IC50 ([6]; MTT assay, normal cells): > 100 µM
IC50 [7, 13]: 3.68 ± 0.21 µM

More lines, in order of falling IC50 (HL-60 leukemia cells; [8]), values ahead:

IC50 (HL-60 leukemia cells; [8]): 31.8 ± 1.82 µM
IC50 [1, 9]: 24.9 ± 1.67 µM
IC50 [2, 10]: 39.9 ± 2.6 µM
IC50 [4, 11]: 33.5 ± 1.43 µM
melting point: 200 to 202 °C
IC50 [5, 12]: 28.3 ± 0.76 µM
IC50 [7, 13]: 44.7 ± 2.52 µM
SMILES: COc1cc(C(=O)OC[C@H]2O[C@@H](Oc3ccc(CO)cc3OC)[C@H](O)[C@@H](O)[C@@H]2O)ccc1O [Compound 10, (6-(4-(hydroxymethyl)-2-methoxyphenoxy)-tetrahydro-3,4,5-trihydroxy-2H-pyran-2-yl) methyl 4-hydroxy-3-methoxy benzoate]
IC50 ([3]; MTT assay, normal cells): > 100 µM
IC50 ([6]; MTT assay, normal cells): > 100 µM

IC50 (HL-60 leukemia cells; [8]): 31.8 ± 1.58 µM
IC50 [1, 9]: 33.8 ± 0.73 µM
IC50 [2, 10]: 36.3 ± 1.76 µM
IC50 [4, 11]: 49.6 ± 3.59 µM
melting point: 131 to 133 °C
IC50 [5, 12]: 43.8 ± 1.75 µM
IC50 [7, 13]: 41.1 ± 1.48 µM
SMILES: COc1cc(OC)cc(C(=O)OCC2OC(Oc3c(OC)cc(CO)cc3OC)C(O)C(O)C2O)c1 (stereo not drawn) [Compound 9l, (6-(4-(hydroxymethyl)-2,6-dimethoxyphenoxy)-tetrahydro-3,4,5-trihydroxy-2H-pyran-2-yl)methyl 3,5-dimethoxybenzoate]
IC50 ([3]; MTT assay, normal cells): > 100 µM
IC50 ([6]; MTT assay, normal cells): > 100 µM

IC50 (HL-60 leukemia cells; [8]): 25.6 ± 0.94 µM
IC50 [1, 9]: 29.4 ± 0.79 µM
IC50 [2, 10]: 30.4 ± 2.81 µM
IC50 [4, 11]: 36.8 ± 0.59 µM
melting point: 180 to 182 °C
IC50 [5, 12]: 45.76 ± 0.42 µM
IC50 [7, 13]: 33.6 ± 1.51 µM
SMILES: COc1cc(CO)cc(OC)c1OC1OC(COC(=O)c2ccccc2)C(O)C(O)C1O (stereo not drawn) [Compound 9j, (6-(4-(hydroxymethyl)-2,6-dimethoxyphenoxy)-tetrahydro-3,4,5-trihydroxy-2H-pyran-2-yl)methyl benzoate]
IC50 ([3]; MTT assay, normal cells): > 100 µM
IC50 ([6]; MTT assay, normal cells): > 100 µM

IC50 (HL-60 leukemia cells; [8]): 25.2 ± 1.92 µM
IC50 [1, 9]: 28.3 ± 1.47 µM
IC50 [2, 10]: 39.5 ± 2.43 µM
IC50 [4, 11]: 42.5 ± 1.51 µM
melting point: 199 to 201 °C
IC50 [5, 12]: 44.6 ± 2.67 µM
IC50 [7, 13]: 37.4 ± 1.65 µM
SMILES: COc1cc(OC)cc(C(=O)OCC2OC(Oc3ccc(CO)cc3OC)C(O)C(O)C2O)c1 (stereo not drawn) [Compound 9d, (6-(4-(hydroxymethyl)-2-methoxyphenoxy)-tetrahydro-3,4,5-trihydroxy-2H-pyran-2-yl)methyl 3,5-dimethoxybenzoate]
IC50 ([3]; MTT assay, normal cells): > 100 µM
IC50 ([6]; MTT assay, normal cells): > 100 µM

IC50 (HL-60 leukemia cells; [8]): 21.8 ± 1.53 µM
IC50 [1, 9]: 28.4 ± 0.69 µM
IC50 [2, 10]: 34.1 ± 1.83 µM
IC50 [4, 11]: 33.8 ± 1.27 µM
melting point: 170 to 172 °C
IC50 [5, 12]: 47.3 ± 2.54 µM
IC50 [7, 13]: 35.6 ± 1.46 µM
SMILES: COc1cc(CO)cc(OC)c1OC1OC(COC(=O)c2ccc(F)cc2)C(O)C(O)C1O (stereo not drawn) [Compound 9m, (6-(4-(hydroxymethyl)-2,6-dimethoxyphenoxy)-tetrahydro-3,4,5-tri hydroxy-2H-pyran-2-yl)methyl 4-fluorobenzoate]
IC50 ([3]; MTT assay, normal cells): > 100 µM
IC50 ([6]; MTT assay, normal cells): > 100 µM
